Test [1] has as its system Candida parapsilosis ATCC 22019. Particulars: Table 1; strain J; control azoles; previously reported (refs 5, 16); cited from earlier work.
The subject of test [2] is C. albicans ATCC MYA-1003(R). The experiment in a line: MIC determination, strain G. Format: cell-based, Candida albicans. The conditions noted are these: Candida albicans. The text has this:
(§1) For all of our azole derivatives we report their MIC-0 values against C. albicans ATCC 10231 (strain A) and all Aspergillus strains (K-M), which correspond to complete growth inhibition of these fungi. […] The MIC values presented for these five control drugs were either tested herein or correspond to our previously published data^5, 16 as indicated in Table 1.
(§2) Antifungal activity in the absence or presence of serum.
(§3) It is important to note that all comparisons to follow will be done by using the MIC values reported in μg/mL as the data were collected that way. However, we also present in parentheses in Table 2 the corresponding values in micromolar.
(§4) In this manuscript, we performed all activity comparisons by using the MIC values reported in μg/mL (Note: the corresponding MIC values are also provided in μM into parentheses in Tables 1, 2, S1, and S2).

Test [3] concerns Aspergillus terreus ATCC MYA-3633. The test is described as follows: MIC determination, strain M. Format: cell-based. The conditions noted are these: Aspergillus terreus, Table 2, all compounds and controls.
Text: as §1, §2, §3, §4

The subject of test [4] is ergosterol biosynthetic pathway (sterol 14α-demethylase) in C. albicans ATCC 10231 (strain A). The experiment in a line: Sterol composition by GC-MS, strain A. It counts as cell-based, Candida albicans. An excerpt: FIG. 7A-FIG. 7H includes FIG. 7A. A simplified ergosterol biosynthetic pathway and products resulting from inhibition of ERG11. FIG. 7B-G. include GC-MS chromatograms of the sterols extracted from untreated and antifungals treated C. albicans strains. […] The peaks are for lanosterol (1), ergosterol (2), eburicol (3), 14-alpha-methyl ergosta 8,24(28)-dien-3-beta,6-alpha-diol (4), and unknown sterols (5 and 6). FIG. 7H is a table summarizing the percentage of each sterol from panels B-G.
FIG. 13A. A simplified ergosterol biosynthetic pathway and products resulting from inhibition of ERG11. FIG. 13B-FIG. 13F. GC-MS chromatograms of the sterols extracted from untreated and antifungal-treated C. albicans ATCC 10231 (strain A). […] The peaks in these chromatograms are for lanosterol (1), ergosterol (2), eburicol (3), 14α-methyl ergosta-8,24(28)-dien-3β,6α-diol (4), and three unknown sterols (5-7). FIG. 13G includes a table summarizing the percentage of each sterol from panels B-F.
No drug controls were also performed (FIGS. 7D and G).
Determination of sterol composition in c. albicans in the presence and absence of drugs. […] By using gas chromatography-mass spectrometry (GC-MS), we investigated the potential of the synthetic compounds to exert their antifungal activity by inhibiting the sterol 14α-demethylase enzyme of the ergosterol biosynthetic pathway (FIG. 13). […] A no drug control was also performed (FIG. 13A).
Since out of our compounds displaying antifungal activity only compound 8 caused membrane disruption of C. albicans ATCC 10231 (strain A) in the membrane permeabilization assay (section 2.6), we decided to explore by using gas chromatography-mass spectrometry (GC-MS) the effect of compounds 8 and 9 on sterol composition during ergosterol biosynthesis (the mechanism of action of other conventional azoles). […] We also used VOR at 0.12 μg/mL and no drug control for comparison.

Test [5] has as its system cell membrane integrity of C. albicans ATCC 10231 (strain A). The experiment in a line: Membrane permeabilization assay (propidium iodide uptake). Format: cell-based, Candida albicans. Particulars: Ex.3 series; 4×MIC. The procedure:
FIG. 20 includes the Effect of the controls VOR (negative) and KANB (C14) (positive) as well as compounds 5-9 on the cell membrane integrity of C. albicans ATCC 10231 (strain A). […] The experiments were performed in duplicate.
PI is a membrane impermeable dye that cannot enter the intact cell unless the cell membrane is damaged. Using these compounds, we also wanted to determine how do the lengths of the alkyl side chains correlate with the membrane disruption potential of these antifungal agents.
Membrane permeabilization assay. […] Based on these findings, we assumed that the hybrids generated in this study could also potentially cause fungal death by disrupting the fungal membrane. To investigate this possible mechanism of action, we evaluated the effect of compounds 20 and 26 on fungal cell membrane integrity by using propidium iodide (PI) dye as a probe (FIG. 12). […] Afterwards, the dye binds to nucleic acid and fluoresces, which can be observed under a fluorescence microscope. […]
Therefore, we decided to study the potential effect of compounds 8 and 9 with C12 and C14 linear alkyl chains to determine the impact of chain length on membrane disruption (FIG. 20). […] The propidium iodide (PI) dye was used as a probe as it can only enter cells with compromised membrane and bind to nucleic acid to emit fluorescence, which can be observed under a fluorescence microscope. […]

The mark [6] stands for this setting: Ex.2 series, VOR 0.12, 20 0.48, 26 0.975 μg/mL.
The mark [7] stands for this setting: Ex.3 series, VOR 0.12, 8 and 9 at sub-MIC […] and 0.975 μg/mL.

The structures appear in SMILES notation. Read-outs that look alike come from different tables or passages of the source. Marks after values point to notes of the source that are not given here.

In general, MIC refers to the lowest concentration that inhibits growth of the organism. For `C[C@@H](c1ncncc1F)[C@](O)(Cn1cncn1)c1ccc(F)cc1F` [VOR, voriconazole], in test [1], the “MIC (MIC-2)” value is recorded as <0.03^c μg/mL. Besides, the minimal inhibitory concentration (MIC) in test [2] (read-out: MIC (MIC-2)) amounted to 1.95 µg/mL; in test [2] (read-out: MIC (MIC-2), in parentheses), 5.6 µM; in test [3] (read-out: MIC (MIC-0)), 0.12 µg/mL; in test [3] (read-out: MIC (MIC-0), in parentheses) it was 0.34 µM. The “ergosterol (2), percentage of sterols” value in test [4] (Ex.2 series, FLC 1.95, VOR 0.12, 20 0.48, 26 0.975 μg/mL) is 64.93%; in test [4] (setting [7]) it was 50.80%. For the same molecule, the “eburicol (3), percentage of sterols” value in test [4] (setting [6]) is given as 2.14%; in test [4] (setting [7]) it was 1.73%. The “lanosterol (1), percentage of sterols” value in test [4] (setting [6]) was found to be 18.49%; in test [4] (setting [7]), 15.21%. The “PI dye uptake by fungal cells” value in test [5] is “did not allow for PI uptake”.

The values are drawn from patent publication US12103916B2, “Antifungal compounds” (University of Kentucky Research Foundation, priority 2016, dated 2024).
